# Reference: patent publication US20130296311A1, “INHIBITORS OF HCV NS5A” (PRESIDIO PHARMACEUTICALS, INC., priority 2010, published 2013)
# Test system: HCV 1b_Huh-Luc/Neo-ET cell line persistently expressing a bicistronic genotype 1b replicon in Huh 7 cells
# Test: HCV replicon assay (luciferase readout, 72 h)
# Type: cell-based, HCV genotype 1b
# Conditions: Hepatitis C virus, Huh-7, 72 h, read-out: Inhibition of HCV genotype 1b
# Description: Biological activity of the compounds of the invention was determined using an HCV replicon assay. The HCV 1b_Huh-Luc/Neo-ET cell line persistently expressing a bicistronic genotype 1b replicon in Huh 7 cells was obtained from ReBLikon GMBH. This cell line was used to test compound inhibition using luciferase enzyme activity readout as a measurement of compound inhibition of replicon levels.
# On Day 1 (the day after plating), each compound is added in triplicate to the cells. Plates incubated for 72 h prior to running the luciferase assay. Enzyme activity was measured using a Bright-Glo Kit (cat. number E2620) manufactured by Promega Corporation. The following equation was used to generate a percent control value for each compound.
# % Control=(Average Compound Value/Average Control)*100
# The EC50 value was determined using GraphPad Prism and the following equation:
# Y=Bottom+(Top-Bottom)/(1+10̂((LogIC50−X)*HillSlope))
# EC50 values of compounds are determined several times in the replicon assay.
# Example compounds of the disclosed invention are illustrated in Tables 1-16 attached as appendices. The tables show inhibitory activity of many of the example compounds with respect to HCV 1b. […] The tables further provide mass spectrometry results for the synthesized example compounds.
row,Structure (SMILES),EC50 [nM]
1,COC(=O)N[C@@H](C(=O)N1CCC[C@H]1c1ncc(-c2ccc3nc(C#Cc4ccc5nc([C@@H]6CCCN6C(=O)[C@H](NC(=O)OC)c6ccccc6)[nH]c5c4)ccc3c2)[nH]1)c1ccccc1 [Compound 1109],< 1
2,COC(=O)N[C@@H](C(=O)N1CCC[C@H]1c1ncc(C#Cc2ccc(-c3ccc(-c4cnc([C@@H]5CCCN5C(=O)[C@@H](c5ccccc5)N5CCCC5)[nH]4)cc3)cc2)[nH]1)c1ccccc1 [Compound 759],< 1
3,COC(=O)N[C@@H](C(=O)N1CCC[C@H]1c1ncc(-c2ccc(C#Cc3ccc(-c4cnc([C@@H]5CCCN5C(=O)[C@H](NC(=O)N5CC[C@H](O)C5)c5ccccc5)[nH]4)cc3)cc2)[nH]1)c1ccccc1 [Compound 269],< 1
4,C[C@H](NC(=O)[C@H](NC(=O)OC(C)(C)C)c1ccccc1)c1ncc(-c2ccc(C#Cc3ccc(-c4cnc([C@@H]5CCCN5C(=O)[C@H](NC(=O)OC(C)(C)C)c5ccccc5)[nH]4)cc3)cc2)[nH]1 [Compound 280],< 1
5,CC(=O)N[C@@H](C(=O)N1CCC[C@H]1c1ncc(C#Cc2ccc(-c3cnc([C@@H]4CCCN4C(=O)[C@H](NC(C)=O)c4ccccc4)[nH]3)cc2)[nH]1)c1ccccc1 [Compound 109],< 1
6,C[C@@H](NC(=O)[C@@H]1CCCN1C(=O)[C@H](NC(=O)C1CC1)c1ccccc1)c1ccc(C#Cc2cnc([C@@H]3CCCN3C(=O)[C@H](NC(=O)C3CC3)c3ccccc3)[nH]2)cc1 [Compound 135],> 1000
7,COC(=O)N[C@@H](C(=O)N1CCC[C@H]1c1ncc(-c2ccc(C#Cc3ccc(-c4cnc([C@@H]5CCCN5C(=O)[C@H](NC(=O)N5CCC[C@@H]5CO)c5ccccc5)[nH]4)cc3)cc2)[nH]1)c1ccccc1 [Compound 254],< 1
8,COC(=O)N[C@@H](C(=O)N1CCC[C@H]1c1ncc(-c2ccc(C#Cc3ccc(-c4cnc([C@@H]5CCCN5C(=O)[C@H](NC(=O)[C@@H]5CCCN5)c5ccccc5)[nH]4)cc3)cc2)[nH]1)c1ccccc1 [Compound 206],< 1
9,COC(=O)NC(C(=O)N1CCC[C@H]1c1ncc(-c2ccc(C#Cc3ccc(-c4cnc([C@@H]5CCCN5C(=O)[C@H](NC(=O)OC)[C@H](C)O)[nH]4)cc3)cc2)[nH]1)[C@H](C)O (stereo partly shown) [Compound 978],10 to 999
10,CC(C)(C)OC(=O)N[C@@H](C(=O)N1CCC[C@H]1c1ncc(C#Cc2ccc(C#Cc3cnc([C@@H]4CCCN4C(=O)[C@H](NC(=O)OC(C)(C)C)c4ccccc4)[nH]3)cc2)[nH]1)c1ccccc1 [Compound 300],< 1
11,COC(=O)N[C@H](C(=O)N[C@@H](C)c1ncc(-c2ccc(C#Cc3ccc(-c4cnc([C@H](C)NC(=O)[C@@H](NC(=O)OC)[C@@H](C)O)[nH]4)cc3)cc2)[nH]1)[C@@H](C)O [Compound 969],< 1

# Same assay, conditions: Hepatitis C virus, Huh-7, read-out: Inhibition of HCV genotype 1b
row,Structure (SMILES),EC50 [nM]
1,CC[C@@H](C)[C@H](NC(=O)OC)C(=O)N1CCC[C@H]1c1ncc(-c2ccc(C#Cc3ccc(-c4cnc([C@@H]5CCCN5C(=O)[C@@H](NC(=O)OC)[C@H](C)CC)[nH]4)cc3)cc2)[nH]1 [Compound 1217],< 1
2,COC(=O)N[C@H](C(=O)N1CCC[C@H]1c1ncc(-c2ccc(C#Cc3ccc(-c4cnc([C@@H]5CCCN5C(=O)[C@H](NC(=O)OC)c5ccccc5OC)[nH]4)cc3)cc2)[nH]1)[C@@H](C)OC [Compound 1211],< 1
3,COC(=O)N[C@@H](C(=O)N1CCC[C@H]1c1ncc(-c2ccc(C#Cc3ccc4nc([C@@H]5CCCN5C(=O)[C@H](NC(=O)OC)c5ccccc5)[nH]c4c3)cc2F)[nH]1)c1ccccc1 [Compound 1222],< 1
4,COC(=O)NC(C(=O)N1CCC[C@H]1c1nc2ccc(C#Cc3ccc4cc(-c5cnc([C@@H]6CCCN6C(=O)[C@@H](NC(=O)OC)C6CCOCC6)[nH]5)ccc4n3)cc2[nH]1)C(C)C (stereo partly shown) [Compound 1290],< 1
5,COC(=O)N[C@H](C(=O)N1CCC[C@H]1c1nc2c([nH]1)-c1ccc(C#Cc3ccc4nc([C@@H]5CCCN5C(=O)[C@H](NC(=O)OC5CCOCC5)c5ccccc5)[nH]c4c3)cc1CCC2)C(C)C [Compound 1282],< 1
